Tested on: not given
Test: not given
Parameters: method as in PMID 11958615
Settings: concentration of 40 µM; cited from earlier work

Question: Which antioxidant activity does the source give for `OC[C@H]1O[C@@H](Oc2cc3c(O)cc(O)cc3[o+]c2-c2ccc(O)c(O)c2)[C@H](O)[C@@H](O)[C@H]1O` [cyanidin 3-O-β-galactoside] here?
Answer: The antioxidant activity was 60.1%.

Question: With `OC[C@H]1O[C@@H](Oc2cc3c(O)cc(O)cc3[o+]c2-c2cc(O)c(O)c(O)c2)[C@H](O)[C@@H](O)[C@H]1O` [delphinidin 3-O-β-galactoside] as the molecule, how does the antioxidant activity read?
Answer: Its antioxidant activity is 70.2%.

Question: Which antioxidant activity does the source give for `OCC1OC(Oc2cc3c(O)cc(O)cc3[o+]c2-c2ccc(O)cc2)C(O)C(O)C1O` (stereo not drawn) [pelargonidin 3-O-β-galactoside] here?
Answer: The antioxidant activity was 40.3%.

Tested on: not listed separately
Test: DPPH radical scavenging assay
Settings: half scavenging concentration; 30 min incubation, absorbance 518 nm
Experimental: The scavenging of DPPH radical was examined using a modified assay previously described. The equal volumes (100 µL) of ethanolic solution of DPPH (0.02 M) and extract samples dissolved in 50% (v/v) aqueous-ethanol were added into 96-well microplates and incubated for 30 min in the darkness. The absorbance was measured at 518 nm with microplate reader (Synergy 4, Biotek, USA). The blind samples were prepared in order to exclude color interference. Ascorbic acid was used as a positive control.

Question: With `O=C1O[C@H]([C@@H](O)CO)C(O)=C1O` [Ascorbic acid] as the molecule, how does the “SC50 DPPH scavenging” value read?
Answer: The value was 3.73 ± 0.83 µg/mL.

Molecular target: α-glucosidase
Test: not given
Parameters: method as in doi:10.1016/j.jff.2017.04.005
Settings: cited from earlier work

Question: With `O=C(O)/C=C/c1ccc(O)c(O)c1` [caffeic acid] as the molecule, how does the IC50 read?
Answer: Its IC50 is 223 µM.

Question: Which IC50 does the source give for `COc1cc(/C=C/C(=O)O)ccc1O` [ferulic acid] here?
Answer: The IC50 was 461 µM.

Question: With `O=C(O)c1cc(O)c(O)c(O)c1` [gallic acid] as the molecule, how does the IC50 read?
Answer: The IC50 was 296 µM.

Question: With `O=c1c(O[C@@H]2O[C@H](CO)[C@@H](O)[C@H](O)[C@H]2O)c(-c2ccc(O)c(O)c2)oc2cc(O)cc(O)c12` [quercetin-3-O-glucoside] as the molecule, how does the IC50 read?
Answer: Its IC50 is 12.3 µM.

Question: For kaempferol-3-O-rutinoside, which IC50 is on record?
Answer: The IC50 was 10.2 µM.

Molecular target: α-glucosidase from Saccharomyces cerevisiae (Saccharomyces cerevisiae, UniProt P53341)
Test: α-glucosidase inhibition (pNPG, spectrophotometric)
Assay type: biochemical
Settings: pNPG substrate, pH 6.8, 37 °C; read-out: IC50 [mM] inhibition of α-glucosidase by compounds isolated from fruit of Cornus alba
Excerpt: Acetonitrile (MeCN, UHPLC-grade), n-butanol (BuOH), chloroform (CHCl3), ethyl acetate (EtOAc), ethanol (EtOH) and methanol (MeOH) for extraction were obtained from POCH (Gliwice, Poland). Natural product reagent A (diphenylboric acid 2-aminoethyl ester) and quercetin 3-O-glucoside (isoquercitrin) were purchased from Carl Roth GmbH (Karlsruhe, Germany). […] Quercetin 3-O-galactoside (hyperoside) was purchased from HWI Analytik GmbH (Rheinzaberner, Germany). […] Water was obtained using Millipore Simfilter Simplicity UV (Molsheim, France) water purification system. HPLC-DAD-MS^n analysis was performed on a UHPLC-3000 RS system (Dionex, Germany) with DAD and an AmaZon SL ion trap mass spectrometer with an ESI interface (Bruker Daltonik GmbH, Germany). […] If needed, additional experiments, such as HSQC and HMBC were performed. The NMR spectra were acquired using Varian VNMRS 300 Oxford 300 MHz spectrometer (Bruker, Billerica, MA, USA).
The α-glucosidase inhibition by extracts was determined spectrophotometrically according to the modified assay previously described. The colorimetric measurement of enzyme activity was based on the hydrolytic cleavage of a substrate, p-nitrophenyl-α-D-glucopyranoside (pNPG). Briefly, sample solution of tested extract or isolated compound (150 µl) dissolved in 0.1 M phosphate buffer (pH 6.8) was incubated with 50 µL of α-glucosidase solution (0.4 U/mL) at 37 °C. After 15 min of incubation, the substrate solution (0.7 mM in 0.1 M phosphate buffer, pH 6.8) was added and the second 15 min incubation at 37 °C was performed. The reaction was terminated by adding 50 µL sodium carbonate solution (0.2 M). The absorbance of p-nitrophenol was measured at 405 nm in a microplate reader (Synergy 4, Biotek, USA).

α-glucosidase from Saccharomyces cerevisiae, sequence (P53341 whole entry): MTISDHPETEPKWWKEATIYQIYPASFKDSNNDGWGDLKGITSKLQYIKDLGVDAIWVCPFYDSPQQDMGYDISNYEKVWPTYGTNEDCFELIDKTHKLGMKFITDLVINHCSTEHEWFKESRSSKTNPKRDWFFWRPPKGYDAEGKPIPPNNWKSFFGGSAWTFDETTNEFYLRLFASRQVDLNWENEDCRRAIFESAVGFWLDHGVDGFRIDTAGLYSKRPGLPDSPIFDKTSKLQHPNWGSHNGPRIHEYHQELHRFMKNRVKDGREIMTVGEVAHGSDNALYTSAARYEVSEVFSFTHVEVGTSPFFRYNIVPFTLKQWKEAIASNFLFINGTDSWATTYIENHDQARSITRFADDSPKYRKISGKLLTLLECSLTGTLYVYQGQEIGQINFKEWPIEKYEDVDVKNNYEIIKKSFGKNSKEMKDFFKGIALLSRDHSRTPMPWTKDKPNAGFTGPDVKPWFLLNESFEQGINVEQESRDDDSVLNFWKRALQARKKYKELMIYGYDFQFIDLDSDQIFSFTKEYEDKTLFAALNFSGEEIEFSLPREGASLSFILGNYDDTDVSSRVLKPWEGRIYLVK

Question: Which IC50 does the source give for `O=C(C=Cc1ccc(O)cc1)OC1CC(O)(C(=O)O)CC(O)C1O` (centres unmarked) [compound 2, 5-O-coumaroylquinic acid] here?
Answer: Its IC50 is 0.84 ± 0.14 mM.

Question: For `COC(=O)C1(O)CC(O)C(O)C(OC(=O)/C=C/c2ccc(O)cc2)C1` (centres unmarked) [compound 3, 5-O-(E)-p-coumaroylquinic acid methyl ester], which IC50 is on record?
Answer: The IC50 was 0.16 ± 0.01 mM.

Question: Which IC50 does the source give for `COC(=O)[C@H]1O[C@@H](Oc2c(-c3ccc(O)cc3)oc3cc(O)cc(O)c3c2=O)[C@H](O)[C@@H](O)[C@@H]1O` [compound 4, kaempferol 3-O-glucuronide 6″-methylester] here?
Answer: Its IC50 is 0.21 ± 0.05 mM.

Question: For `OC[C@H]1O[C@@H](OCCc2ccc(O)c(O)c2)[C@H](O)[C@@H](O)[C@@H]1O` [compound 5, hydroxytyrosol glucoside], which IC50 is on record?
Answer: The IC50 was 1.46 ± 0.18 mM.

Tested on: PL
Test: not given
Parameters: method as in doi:10.1016/j.jff.2017.04.005
Settings: read-out: IC50 against PL activity; cited from earlier work

Question: With `O=C(/C=C/c1ccc(O)c(O)c1)O[C@@H]1C[C@](O)(C(=O)O)C[C@@H](O)[C@H]1O` [compound 1, chlorogenic acid] as the molecule, how does the IC50 read?
Answer: The IC50 was 3.81 mM.

Question: With `O=C(O)c1cc(O)c(O)c(O)c1` [gallic acid] as the molecule, how does the IC50 read?
Answer: The IC50 was 5.05 mM.

Question: Which IC50 does the source give for `O=c1c(O[C@@H]2O[C@H](CO)[C@@H](O)[C@H](O)[C@H]2O)c(-c2ccc(O)cc2)oc2cc(O)cc(O)c12` [kaempferol-3-O-glucoside] here?
Answer: The IC50 was 3.52 mM.

Question: For `O=c1c(O[C@@H]2O[C@H](CO)[C@@H](O)[C@H](O)[C@H]2O)c(-c2ccc(O)c(O)c2)oc2cc(O)cc(O)c12` [quercetin-3-O-glucoside], which IC50 is on record?
Answer: Its IC50 is 1.74 mM.

Tested on: glucosidase
Test: not given
Parameters: method as in Dehghan et al., 2018
Settings: ref Dehghan et al., 2018; cited from earlier work

Question: With `Cc1cc(O)c2c(c1)C(=O)c1cc(O)cc(O)c1C2=O` [emodin] as the molecule, how does the “anti-glucosidase activity (in words)” value read?
Answer: Its value is “relevant anti-glucosidase activity”.

Question: With `COc1cc(O)c2c(c1)C(=O)c1cc(C)cc(O)c1C2=O` [physcion] as the molecule, how does the “anti-glucosidase activity (in words)” value read?
Answer: Its value is “relevant anti-glucosidase activity”.

Question: Which “anti-glucosidase activity (in words)” value does the source give for `C[C@H](CCc1ccc(O)cc1)O[C@@H]1O[C@H](CO)[C@@H](O)[C@H](O)[C@H]1O` [rhododendrin] here?
Answer: Its value is “relevant anti-glucosidase activity”.

— article PMC7020211, “Inhibition of Digestive Enzymes and Antioxidant Activity of Extracts from Fruits of Cornus alba, Cornus sanguinea subsp. hungarica and Cornus florida–A Comparative Study” (Plants, 2020)
